Data as given in ChEMBL document CHEMBL3885861, “Open TG-GATES”.

Species: Rattus norvegicus
Experiment: Open TG-GATES - Regimen: Single
Assay type: toxicity, organism-based, Sprague-Dawley
Set-up: regimen Single, gender Male, age 6 weeks
Settings: in vivo, po, 3 mg/kg, route gavage, dose level Middle; for APTT / Bas / Eos / Fbg / Hb / Ht / Lym / MCH / MCHC / MCV / Mono / Neu / PT / Plat / RBC / Ret / WBC: tissue Blood; for KIDNEY_L / KIDNEY_R / KIDNEY_TOTAL: tissue Kidney; for LIVER: tissue Liver; for A/G / ALP / ALT / AST / BUN / CRE / Ca / Cl / DBIL / GLC / IP / K / LDH / Na / PL / RALB / TBIL / TC / TG / TP / gamma-GTP: tissue Plasma

With CN1C(C(=O)Nc2ccccn2)=C(O)c2sc(Cl)cc2S1(=O)=O [LORNOXICAM] the TERMINAL_BW (3 h) was 224.5 g, the APTT (3 h) was 20.3 s and the Bas (3 h) was 0.6%. The Eos (3 h) was 1%, the Fbg (3 h) was 223.8 mg/dL and the Hb (3 h) was 13.2 g/dL. For the same compound, the Ht (3 h) was 40%, the Lym (3 h) was 75.2% and the MCH (3 h) was 21 pg. For the same compound, the MCHC (3 h) was 32.9%, the MCV (3 h) was 63.8 fL and the Mono (3 h) was 3.4%. The Neu (3 h) was 19.6%, the PT (3 h) was 11.7 s and the Plat (3 h) was 123.9 x10_4/uL. The RBC (3 h) was 626.4 x10_4/ul, the Ret (3 h) was 7.2% and the WBC (3 h) was 135.4 x10_2/uL. It also gave a KIDNEY_L (3 h) of 1 g, a KIDNEY_R (3 h) of 1 g and a KIDNEY_TOTAL (3 h) of 2 g. It also gave an LIVER (3 h) of 10.3 g, an A/G (3 h) of 1.6 and an ALP (3 h) of 1026.6 IU/L. It also gave an ALT (3 h) of 45.4 IU/L, an AST (3 h) of 81 IU/L and a BUN (3 h) of 12.4 mg/dL. It also gave a CRE (3 h) of 0.3 mg/dL, a Ca (3 h) of 10.8 mg/dL and a Cl (3 h) of 104 meq/L. It also gave a DBIL (3 h) of 0.074 mg/dL, a GLC (3 h) of 197 mg/dL and an IP (3 h) of 9 mg/dL. The K (3 h) was 4.1 meq/L, the LDH (3 h) was 163.8 IU/L and the Na (3 h) was 141.8 meq/L. For the same compound, the PL (3 h) was 152.8 mg/dL, the RALB (3 h) was 3.5 g/dL and the TBIL (3 h) was 0.1 mg/dL. It also gave a TC (3 h) of 82.4 mg/dL, a TG (3 h) of 73.8 mg/dL and a TP (3 h) of 5.7 g/dL. For the same compound, the gamma-GTP (3 h) was 1 IU/L, the TERMINAL_BW (6 h) was 222.9 g and the APTT (6 h) was 18.9 s. For the same compound, the Bas (6 h) was 0.6%, the Eos (6 h) was 0.8% and the Fbg (6 h) was 223.6 mg/dL. For the same compound, the Hb (6 h) was 13.4 g/dL, the Ht (6 h) was 40.2% and the Lym (6 h) was 78.4%. The MCH (6 h) was 21.3 pg, the MCHC (6 h) was 33.4% and the MCV (6 h) was 63.7 fL. The Mono (6 h) was 3.4%, the Neu (6 h) was 16.8% and the PT (6 h) was 12.3 s. The Plat (6 h) was 123.6 x10_4/uL, the RBC (6 h) was 631.2 x10_4/ul and the Ret (6 h) was 7.2%. For the same compound, the WBC (6 h) was 108.8 x10_2/uL, the KIDNEY_L (6 h) was 1 g and the KIDNEY_R (6 h) was 1 g. It also gave a KIDNEY_TOTAL (6 h) of 1.9 g, an LIVER (6 h) of 10 g and an A/G (6 h) of 1.7. For the same compound, the ALP (6 h) was 948.8 IU/L, the ALT (6 h) was 38.2 IU/L and the AST (6 h) was 72.8 IU/L. It also gave a BUN (6 h) of 11.8 mg/dL, a CRE (6 h) of 0.4 mg/dL and a Ca (6 h) of 10.6 mg/dL. The Cl (6 h) was 104 meq/L, the DBIL (6 h) was 0.074 mg/dL and the GLC (6 h) was 193.6 mg/dL. The IP (6 h) was 8.6 mg/dL, the K (6 h) was 4.1 meq/L and the LDH (6 h) was 159 IU/L. The Na (6 h) was 140.6 meq/L, the PL (6 h) was 134.8 mg/dL and the RALB (6 h) was 3.5 g/dL. For the same compound, the TBIL (6 h) was 0.2 mg/dL, the TC (6 h) was 75 mg/dL and the TG (6 h) was 64.4 mg/dL. It also gave a TP (6 h) of 5.6 g/dL, a gamma-GTP (6 h) of 0.8 IU/L and a TERMINAL_BW (9 h) of 223.4 g. For the same compound, the APTT (9 h) was 18.6 s, the Bas (9 h) was 0.4% and the Eos (9 h) was 0.8%. For the same compound, the Fbg (9 h) was 220.2 mg/dL, the Hb (9 h) was 13.2 g/dL and the Ht (9 h) was 39.2%. It also gave a Lym (9 h) of 71.2%, an MCH (9 h) of 21.6 pg and an MCHC (9 h) of 33.7%. It also gave an MCV (9 h) of 64.1 fL, a Mono (9 h) of 3.4% and a Neu (9 h) of 24%. It also gave a PT (9 h) of 12.2 s, a Plat (9 h) of 120.6 x10_4/uL and an RBC (9 h) of 611.6 x10_4/ul. It also gave a Ret (9 h) of 6.8%, a WBC (9 h) of 110.6 x10_2/uL and a KIDNEY_L (9 h) of 1 g. It also gave a KIDNEY_R (9 h) of 1 g, a KIDNEY_TOTAL (9 h) of 2 g and an LIVER (9 h) of 9.1 g. For the same compound, the A/G (9 h) was 1.6, the ALP (9 h) was 857.8 IU/L and the ALT (9 h) was 41.2 IU/L. It also gave an AST (9 h) of 69.8 IU/L, a BUN (9 h) of 10.8 mg/dL and a CRE (9 h) of 0.3 mg/dL. For the same compound, the Ca (9 h) was 10.5 mg/dL, the Cl (9 h) was 103.2 meq/L and the DBIL (9 h) was 0.064 mg/dL. The GLC (9 h) was 190 mg/dL, the IP (9 h) was 9.7 mg/dL and the K (9 h) was 4.1 meq/L. For the same compound, the LDH (9 h) was 168.6 IU/L, the Na (9 h) was 141.2 meq/L and the PL (9 h) was 125.4 mg/dL. It also gave an RALB (9 h) of 3.2 g/dL, a TBIL (9 h) of 0.1 mg/dL and a TC (9 h) of 66.2 mg/dL. It also gave a TG (9 h) of 54.4 mg/dL, a TP (9 h) of 5.3 g/dL and a gamma-GTP (9 h) of 1 IU/L. For the same compound, the TERMINAL_BW (24 h) was 235.4 g, the APTT (24 h) was 20 s and the Bas (24 h) was 0.2%. The Eos (24 h) was 0.2%, the Fbg (24 h) was 261.6 mg/dL and the Hb (24 h) was 12.8 g/dL. For the same compound, the Ht (24 h) was 39%, the Lym (24 h) was 60.2% and the MCH (24 h) was 20.8 pg. For the same compound, the MCHC (24 h) was 32.9%, the MCV (24 h) was 63.5 fL and the Mono (24 h) was 3.8%. It also gave a Neu (24 h) of 33.8%, a PT (24 h) of 12.1 s and a Plat (24 h) of 122.4 x10_4/uL. It also gave an RBC (24 h) of 614.2 x10_4/ul, a Ret (24 h) of 6.8% and a WBC (24 h) of 136.9 x10_2/uL. It also gave a KIDNEY_L (24 h) of 1 g, a KIDNEY_R (24 h) of 1 g and a KIDNEY_TOTAL (24 h) of 2.1 g. It also gave an LIVER (24 h) of 11.4 g, an A/G (24 h) of 1.5 and an ALP (24 h) of 892.2 IU/L. For the same compound, the ALT (24 h) was 39.8 IU/L, the AST (24 h) was 67.6 IU/L and the BUN (24 h) was 13.2 mg/dL. It also gave a CRE (24 h) of 0.4 mg/dL, a Ca (24 h) of 10.5 mg/dL and a Cl (24 h) of 104.8 meq/L. For the same compound, the DBIL (24 h) was 0.078 mg/dL, the GLC (24 h) was 203.8 mg/dL and the IP (24 h) was 7.8 mg/dL. The K (24 h) was 4.2 meq/L, the LDH (24 h) was 207.8 IU/L and the Na (24 h) was 141.8 meq/L. It also gave a PL (24 h) of 133.2 mg/dL, an RALB (24 h) of 3.1 g/dL and a TBIL (24 h) of 0.1 mg/dL. The TC (24 h) was 68.2 mg/dL, the TG (24 h) was 74.4 mg/dL and the TP (24 h) was 5.1 g/dL. It also gave a gamma-GTP (24 h) of 0.8 IU/L.
